Measurements published in patent US10980723B2, “Non-aqueous composition for hair frizz reduction” (The Procter & Gamble Company, priority 2017, dated 2021).

Test: Hair Switch Frizz Assessment by ten expert graders
Details: for Results of Hair Switch Rating (frizz protection, clean feel, greasy feel) in words: aqueous compositions, Tables 3 and 4, 1% material; for Results of Hair Switch Rating (frizz protection, clean, smooth, greasy feel) in words: non-aqueous compositions, Tables 9 and 10, 1% material
Protocol: The leave-on treatment compositions are prepared by adding the Moisture Control Materials and perfume, if needed, into a 50:50 ethanol/water carrier and stirred until complete dissolution. The solution pH is adjusted using sodium hydroxide (50% w/w) to a final pH of 4.0-4.2. […] Method of Making Non-Aqueous Leave-on Treatment Compositions The non-aqueous leave-on treatment compositions are prepared by adding the Moisture Control Materials and perfume, if needed, into a mixture of Dimethiconol/Dimethicone and Cyclopentasiloxane/Isododecane and stirred until complete dissolution. Additionally, propylene glycol is added to aid in dissolution of moisture control materials at high levels of dimethicone. […] Method of Making of Non-Aqueous Leave-on Treatment Composition in a Solid Form The leave-on treatment composition in solid form is prepared by mixing together two different compositions. A premix and main-mix. […] In-Use Product Feel Assessment on Hair Switch Ten expert graders are asked to apply formulation on hair and rate each formulation based on a 5 point scale for in-use feel assessment, 5 being the highest (best feel) and 1 being the lowest rating. Method of Determining Stability of the Compositions Leave-on compositions are kept at 40° C. at 60% RH to visually assess any precipitation on day 1 and after a week of storage at these conditions.
Then, ten experts are asked to rate each hair switch in terms of frizz, clean feel, and greasy feel, based on a 5 point scale, 5 being the highest and 1 being the lowest rating.
Then, ten experts are asked to rate each hair switch in terms of frizz, clean feel, smooth feel and greasy feel, based on a 5 point scale, 5 being the highest and 1 being the lowest rating.

| Structure (SMILES) | Results of Hair Switch Rating (frizz protection, clean feel, greasy feel) in words | Results of Hair Switch Rating (frizz protection, clean, smooth, greasy feel) in words |
| --- | --- | --- |
| O=C(O)c1ccc(O)cc1O [2,4-Dihydroxybenzoic acid] | provide frizz protection with clean feel and without greasy feel negative | provide frizz protection with clean and smooth feel and without greasy feel negative |
| O=C(OCCO)c1ccccc1O [2-Hydroxyethyl salicylate] | provide frizz protection with clean feel and without greasy feel negative | provide frizz protection with clean, smooth feel and without greasy feel negative |
| O=C(O)c1ccccc1O [Salicylic acid] | provide frizz protection with clean feel and without greasy feel negative | provide frizz protection with clean and smooth feel and without greasy feel negative |
| CCCCCCCCC(CO)CCCCCC (centres unmarked) [2-Hexyl-1-decanol] | provide frizz protection with clean feel and without greasy feel negative | provide frizz protection with clean, smooth feel and without greasy feel negative |
| O=S(=O)(O)c1ccc(O)cc1 [4-Hydroxybenzenesulphonic acid] | provide frizz protection with clean feel and without greasy feel negative | provide frizz protection with clean and smooth feel and without greasy feel negative |
| O=C(O)c1cc(Cl)ccc1O [5-Chlorosalicylic acid] | provide frizz protection with clean feel and without greasy feel negative | provide frizz protection with clean and smooth feel and without greasy feel negative |
| CC(C)CCCCCCCCCCCCCCCOC(=O)CCCCCCCCCCCCCCC(C)C [Isostearyl isostearate] | provide frizz protection with clean feel and without greasy feel negative | provide frizz protection with clean, smooth feel and without greasy feel negative |
